The source of these data is patent US7795385B2, “Use of bombesin/gastrin-releasing peptide antagonists for the treatment of inflammatory conditions, acute lung injury and bipolar disorder” (Bexar Global, Inc., priority 2004, dated 2010).

Data set [1] concerns patient with rheumatoid arthritis. Description: Administration to a patient with rheumatoid arthritis. It is filed as in vivo, human. The settings on record: 6 mg RC-3095 twice daily s.c. On the procedure: The composition consists of a white lyophilised cake in a 4 ml injection vial. One injection vial will be reconstituted with 2 ml water for injection.
A patient with rheumatoid arthritis, started on March 22 with 6 mg of RC-3095, twice daily. Application subcutaneously.
At baseline visit the patient presented with joint pain grade 3, joint inflammation grade 2 and depression grade 2.
Before start with RC-3095 they were already taken methotrexate, subcutaneously, once a week, and corticosteroids.
They were followed every two weeks by physical examination and laboratorial exams.

Data set [2] deals with amphetamine (AMPH)-induced hyperactivity in rats. Description: Amphetamine-induced hyperactivity test (open field, model of mania). Particulars: RC-3095 0.1, 1.0 or 10.0 mg/kg i.p. The format is in vivo, male Wistar rats. On the procedure: Animals. A total of 120 male Wistar rats (age, 2.5-3 months; weight, 220-340 g) from an inhouse breeding colony were used. They were housed in plastic cages, 5 to a cage, with water and food freely available, under a 12-h light/dark cycle (lights on at 7:00 h). All experimental procedures were performed in accordance with the NIH Guide for the Care and Use of Laboratory Animals and the Brazilian Society for Neuroscience and Behavior (SBNeC) recommendations for animal care.
Drugs and pharmacological procedures. d-amphetamine (AMPH, 2.0 mg/kg) and RC-3095 (a gift from Dr. J. Engel, Zentaris GmbH, Germany) were dissolved in saline (SAL, 0.9% NaCl). All solutions were prepared immediately prior to administration. Animals were given a 10 ml/kg intraperitoneal (i.p.) injection of SAL or RC-3095 (0.1, 1.0 or 10.0 mg/kg) followed by an i.p. injection of SAL or AMPH […] 30 min later. Thus, the resulting experimental groups were: SAL/SAL; SAL/AMPH, RC-3095 0.1 mg/kg/AMPH, RC-3095 1.0 mg/kg/AMPH, RC-3095 10.0 mg/kg/AMPH, RC 3095 0.1 mg/kg/SAL; RC-3095 1.0 mg/kg/SAL; and RC-3095 10.0 mg/kg/SAL.
Hyperactivity test. […] Crossings of the black lines and rearings performed were counted. […]
Statistical analysis. All data are presented as mean±S.E.M. Differences among experimental groups were determined by ANOVA. […]

On to `CC(C)C[C@@H](CN[C@@H](CC(C)C)C(N)=O)NC(=O)[C@H](Cc1c[nH]cn1)NC(=O)CNC(=O)[C@@H](NC(=O)[C@H](C)NC(=O)[C@H](Cc1c[nH]c2ccccc12)NC(=O)[C@H](CCC(N)=O)NC(=O)[C@H]1Cc2c([nH]c3ccccc23)CN1)C(C)C` [RC-3095, H-D-Tpi-Gln-Trp-Ala-Val-Gly-His-Leu-psi-Leu-NH2], for which the adverse events entry in data set [1] is “only local (nodes and pruritus)”. In addition, the “other behavioral measures (sedation)” value in data set [2] was “did not alter”.
